# Assay results published in US12036208B2, “Methods for treating neurodegenerative disorders” (Alzheon, Inc., priority 2017, dated 2024).
# Molecular target: T1, recombinant human β-Amyloid Peptide (1-42) (Homo sapiens, UniProt P05067)
# T1 construct: recombinant human β-Amyloid Peptide (1-42) from BioLegend; purchased BioLegend 843801
# Assay: Binding assay: mass spectrometry (Q-TOF) of compounds binding to Aβ1-42
# Details: 22 pmol/μL β-Amyloid Peptide (1-42), 1100 pmol/μL test compound; direct infusion Q-TOF MS at room temperature
# Description: The activity of the compounds utilized in the methods described herein can be assayed by measuring the binding of those compounds to β-amyloid. Data acquisition can be performed using a Waters Synapt G2-S quadrupole time of flight mass spectrometer (Q-TOF MS) with traveling wave ion mobility (Waters Corp. 34 Maple Street Milford, MA 01757). The data can be acquired using the systems sensitivity mode to allow for the detection of the less abundant oligomers. Samples can be infused at room temperature due to lower solubility of the peptide at body temperature ([…]).
# One mg of compound can be reconstituted in 1 mL of Fisher Optima LC/MS grade water (cat: W6-1) and vortexed vigorously for 2 minutes until completely dissolved. The sample can be then diluted to create a 220 pmol/μL, 2200 pmol/μL, and 22,000 pmol/μL solutions to perform binding experiments to Aβ42 with 10-, 100-, and 1000-fold molar excess of tested compound.
# One mg of recombinant human β-Amyloid Peptide (1-42) from BioLegend can be reconstituted in 200 μL of Fisher Optima LC/MS grade water and vortexed vigorously to solubilize the peptide creating a 5 mg/mL solution. Samples can be then diluted to a final concentration of 44 pmol/μL prior to mixing (1:1) with test compound solution. Final concentrations were 22 pmol/μL for human β-Amyloid Peptide (1-42) and 1100 pmol/μL for test compounds.
# The data acquisition was performed using a Waters time of flight mass spectrometer (Q-TOF Micro). The data was acquired using the scanning mode to allow for the detection of the peptide. Samples were infused at room temperature. The mass spectrometer conditions were maintained throughout the study to ensure consistency of the data. The Waters Q-TOF conditions were as follows:
# Samples were directly infused into the mass spectrometer at a flow rate of 20 μL/min using in-build Syringe Pump and Hamilton 1 mL Syringe and the acquisition time was kept 2 minutes.
# T1 sequence (P05067 672-713 limits assumed): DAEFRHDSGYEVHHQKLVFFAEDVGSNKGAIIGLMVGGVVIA
row,SMILES,Number of Molecules Bound to Aβ1-42 (# of Molecules Bound to Aβ)
1,CN(C)C(=O)[n+]1ccc(CCS(=O)(=O)[O-])cc1 [Compound 158],0
2,Nc1ncc(S(=O)(=O)O)s1 [Compound 124],3
3,Cc1ccc2nc(-c3ccc(N)cc3)sc2c1S(=O)(=O)O [Compound 164],0
4,Nc1ccc(-c2ccc(N)cc2S(=O)(=O)O)c(S(=O)(=O)O)c1 [Compound 166],2
5,O=S(=O)(O)c1nnc[nH]1 [Compound 117],3
6,Nc1ccc(S(=O)(=O)O)cc1 [Compound 122],0
7,O=S(=O)(O)c1ccc(Nc2ccccc2)cc1 [Compound 150],0
8,Nc1cccc2c(S(=O)(=O)O)cccc12 [Compound 138],0
9,Nc1ccc2c(S(=O)(=O)O)cccc2c1 [Compound 140],0
10,C[n+]1cccc(S(=O)(=O)[O-])c1 [Compound 120],8
11,Nc1cccc2ccc(S(=O)(=O)O)cc12 [Compound 136],0
12,COC(=O)c1cc(OC)c(S(=O)(=O)O)s1 [Compound 151],0
13,Nc1ccc2ccc(S(=O)(=O)[O-])cc2c1.[Na+] [Compound 149],0
14,Cn1cnnc1S(=O)(=O)O [Compound 119],0
15,Nc1ccc(Nc2ccc(N)cc2S(=O)(=O)O)cc1 [Compound 160],1
16,Nc1nc2ccc(S(=O)(=O)O)cc2s1 [Compound 142],2
17,Nc1ccc(S(=O)(=O)O)c2ccccc12 [Compound 137],0
18,O=S(=O)(O)c1ccc2[nH]cnc2c1 [Compound 130],0
19,CCOC(=O)c1cnn(-c2ccc(S(=O)(=O)O)cc2)c1N [Compound 163],0
20,Nc1cc(S(=O)(=O)O)ccc1O [Compound 128],0
21,Cn1c(S(=O)(=O)O)nc2ccccc21 [Compound 133],0
22,Cc1cc(C)[n+]2cc(S(=O)(=O)[O-])sc2n1 [Compound 148],5
23,Nc1cccc2cc(S(=O)(=O)O)ccc12 [Compound 139],0

row,SMILES,Number of Molecules Bound to Aβ1-42 (# of Molecules Bound to Aβ)
1,Nc1ccc(S(=O)(=O)O)cn1 [Compound 170],6
2,Cc1oc2ccc(-c3ccccc3)cc2[n+]1CCCS(=O)(=O)[O-] [Compound 165],1
3,Nc1cc(S(=O)(=O)O)cc(C(=O)O)c1O [Compound 143],0
4,O=C(O)c1cc(=O)n(-c2ccc(S(=O)(=O)O)cc2)[nH]1 [Compound 161],0
5,Nc1ccc2cc(S(=O)(=O)O)ccc2c1 [Compound 135],0
6,Cc1cc(C)n(-c2ccc(S(=O)(=O)O)cc2)n1 [Compound 152],1
7,Cc1cc(=O)n(-c2cccc(S(=O)(=O)O)c2)[nH]1 [Compound 154],1
8,Nc1cccc(S(=O)(=O)O)c1 [Compound 121],0
9,Nc1ccc(N)c(S(=O)(=O)O)c1 [Compound 126],1
10,Cn1cc(S(=O)(=O)O)cn1 [Compound 118],1
11,Nc1ccc(S(=O)(=O)O)c(N)c1 [Compound 127],0
12,Nc1cc(S(=O)(=O)[O-])c2cccc(S(=O)(=O)[O-])c2c1.[Na+].[Na+] [Compound 167],0
13,Nc1ccc2cc(S(=O)(=O)O)ccc2c1.O [Compound 146],0
14,Nc1ccncc1S(=O)(=O)O [Compound 171],7
15,O=S(=O)(O)c1ccc2c(c1)NCC2 [Compound 131],0
16,NC1=NN(c2ccc(Oc3ccccc3)c(S(=O)(=O)O)c2)C(=O)C1 [Compound 168],0
17,Nc1nc2cc(S(=O)(=O)O)cc(N)c2o1 [Compound 172],0
18,Nc1ncnc2[nH]c(S(=O)(=O)O)nc12 [Compound 134],2
19,CC[n+]1ccc(-c2cccc(S(=O)(=O)[O-])c2)o1 [Compound 153],5
20,CCCn1c(S(=O)(=O)O)nc2ccccc21 [Compound 145],0
21,NCc1ccc(S(=O)(=O)O)cc1 [Compound 125],0
22,Nc1ccc2c(S(=O)(=O)O)cccc2c1N [Compound 144],0
23,O=C1Nc2ccc(S(=O)(=O)O)cc2CO1 [Compound 141],0
